From patent US9045491B2, “Thienyl [3,2-D] pyrimidin-4-one compounds, preparation method, pharmaceutical compositions and use thereof” (SHANGHAI INSTITUTE OF MATERIA MEDICA, CHINESE ACADEMY OF …, priority 2011, dated 2015)

What was measured:
Assay type in all cases: biochemical
[1] = molecular target: T1, human DPP IV (Homo sapiens, UniProt P27487); assay: DPP IV activity screening (Ala-Pro-AMC fluorescence)
T1 construct: extracellular fragment of protease DPP IV (aa29-766); made in house; host or cells: baculovirus expression system Bac-to-Bac
T1 sequence (P27487 29-766): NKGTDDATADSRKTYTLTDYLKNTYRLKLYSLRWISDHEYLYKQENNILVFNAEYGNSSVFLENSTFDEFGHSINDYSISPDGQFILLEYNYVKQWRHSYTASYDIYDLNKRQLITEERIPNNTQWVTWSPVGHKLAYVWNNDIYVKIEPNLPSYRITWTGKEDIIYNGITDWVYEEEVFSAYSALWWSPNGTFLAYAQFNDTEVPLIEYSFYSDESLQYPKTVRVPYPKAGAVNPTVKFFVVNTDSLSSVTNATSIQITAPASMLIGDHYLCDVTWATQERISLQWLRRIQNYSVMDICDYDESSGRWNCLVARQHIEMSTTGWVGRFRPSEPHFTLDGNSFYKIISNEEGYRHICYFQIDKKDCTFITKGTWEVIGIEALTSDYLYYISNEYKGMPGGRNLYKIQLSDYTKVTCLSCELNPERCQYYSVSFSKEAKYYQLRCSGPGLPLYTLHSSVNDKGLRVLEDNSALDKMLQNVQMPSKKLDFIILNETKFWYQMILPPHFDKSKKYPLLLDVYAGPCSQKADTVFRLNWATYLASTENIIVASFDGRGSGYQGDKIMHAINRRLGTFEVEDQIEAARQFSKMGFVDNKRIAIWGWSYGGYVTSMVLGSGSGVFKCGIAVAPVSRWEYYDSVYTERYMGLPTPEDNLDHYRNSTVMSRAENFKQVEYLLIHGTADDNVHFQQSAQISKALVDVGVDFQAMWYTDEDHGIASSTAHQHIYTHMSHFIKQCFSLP
Description: (§1) Screening method: dipeptidyl peptidase IV (DPP IV) activity screening, dipeptidyl peptidase 7 (DPP 7), dipeptidyl peptidase 8 (DPP 8) activity screening, and dipeptidyl peptidase 9 (DPP 9) activity screening.
Instruments: Microplate Reader (PerkinElmer, USA).
The linear change of fluorescence value at 460 nm in unit time was dynamically measured and DPP IV activity was obtained by calculation.
(§2) Sample treatment: the sample was dissolved in DMSO and stored in low temperature. The concentration of DMSO in the final system was controlled so that the detected activity was not affected.
(§3) The activity of sample was tested under the selected single concentration from preliminary screening, for example, 20 μg/mL. […] The software for calculation was Graphpad Prism 4 and the model used for fitting was sigmoidal dose-response (variable slope). For most inhibitor screening models, the bottom and top of the fitting curve were set to 0 and 100.

[2] = molecular target: dipeptidyl peptidase 7 (DPP 7) (Homo sapiens, UniProt Q9UHL4); assay: DPP 7 activity screening; conditions: N.I. = No Inhibition
Description: as §1, §2, §3

[3] = molecular target: T2, human DPP 8 (Homo sapiens, UniProt Q6V1X1); assay: DPP 8 activity screening (Ala-Pro-AMC fluorescence); conditions: N.I. = No Inhibition
T2 construct: made in house; host or cells: insect cells, baculovirus Bac-to-Bac
T2 sequence (Q6V1X1 whole entry): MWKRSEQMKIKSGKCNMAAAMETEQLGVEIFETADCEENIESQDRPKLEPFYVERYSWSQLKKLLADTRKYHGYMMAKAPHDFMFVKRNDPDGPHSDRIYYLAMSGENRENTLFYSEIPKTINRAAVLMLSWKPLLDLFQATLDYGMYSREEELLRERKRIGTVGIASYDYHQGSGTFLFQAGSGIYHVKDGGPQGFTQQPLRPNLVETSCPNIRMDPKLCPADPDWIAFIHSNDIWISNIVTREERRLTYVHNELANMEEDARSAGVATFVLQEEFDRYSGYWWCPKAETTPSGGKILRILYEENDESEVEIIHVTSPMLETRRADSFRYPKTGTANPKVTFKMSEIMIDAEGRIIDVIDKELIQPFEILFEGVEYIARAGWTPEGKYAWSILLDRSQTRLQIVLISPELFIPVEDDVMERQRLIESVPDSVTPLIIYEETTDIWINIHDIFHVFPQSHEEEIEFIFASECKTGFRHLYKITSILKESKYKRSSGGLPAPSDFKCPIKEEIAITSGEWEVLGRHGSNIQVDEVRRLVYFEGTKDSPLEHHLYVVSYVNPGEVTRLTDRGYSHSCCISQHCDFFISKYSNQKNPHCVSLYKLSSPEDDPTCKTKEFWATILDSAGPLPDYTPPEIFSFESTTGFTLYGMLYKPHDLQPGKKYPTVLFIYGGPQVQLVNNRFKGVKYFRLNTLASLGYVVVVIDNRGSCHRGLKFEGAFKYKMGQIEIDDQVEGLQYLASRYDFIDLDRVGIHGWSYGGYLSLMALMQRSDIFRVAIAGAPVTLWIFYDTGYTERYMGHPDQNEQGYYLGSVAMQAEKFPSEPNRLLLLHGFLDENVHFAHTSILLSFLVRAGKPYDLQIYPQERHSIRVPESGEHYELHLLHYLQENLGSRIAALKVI
Description: as §1
(§4) Materials: human DPP IV, obtained extracellular fragment of protease DPP IV (aa29-766), was expressed and purified by our laboratory using baculovirus expression system Bac-to-Bac (purchased from GIBCO company) in accordance with the conventional experimental technology; human DPP 8 was obtained in insect cells by our laboratory using baculovirus expression system Bac-to-Bac (purchased from GIBCO company) in accordance with the conventional experimental technology; Human DPP 9 was obtained in insect cells by our laboratory using baculovirus expression system Bac-to-Bac (purchased from GIBCO company) in accordance with the conventional experimental technology; and the substrate Ala-Pro-AMC was synthesized by GL Biochem (Shanghai) Ltd.
(§5) Principle of Activity test: DPP IV, DPP 8 and DPP 9 can specifically hydrolyze the substrate Ala-Pro-AMC to form product AMC, and AMC is excited by 355 nm of UV light to generate 460 nm of emission light. The linear change of fluorescence value at 460 nm in unit time was dynamically measured and DPP IV activity was obtained by calculation.
as §2, §3

[4] = molecular target: T3, Human DPP 9 (Homo sapiens, UniProt Q86TI2); assay: DPP 9 activity screening (Ala-Pro-AMC fluorescence); conditions: N.I. = No Inhibition
T3 construct: made in house; host or cells: insect cells, baculovirus Bac-to-Bac
T3 sequence (Q86TI2 whole entry): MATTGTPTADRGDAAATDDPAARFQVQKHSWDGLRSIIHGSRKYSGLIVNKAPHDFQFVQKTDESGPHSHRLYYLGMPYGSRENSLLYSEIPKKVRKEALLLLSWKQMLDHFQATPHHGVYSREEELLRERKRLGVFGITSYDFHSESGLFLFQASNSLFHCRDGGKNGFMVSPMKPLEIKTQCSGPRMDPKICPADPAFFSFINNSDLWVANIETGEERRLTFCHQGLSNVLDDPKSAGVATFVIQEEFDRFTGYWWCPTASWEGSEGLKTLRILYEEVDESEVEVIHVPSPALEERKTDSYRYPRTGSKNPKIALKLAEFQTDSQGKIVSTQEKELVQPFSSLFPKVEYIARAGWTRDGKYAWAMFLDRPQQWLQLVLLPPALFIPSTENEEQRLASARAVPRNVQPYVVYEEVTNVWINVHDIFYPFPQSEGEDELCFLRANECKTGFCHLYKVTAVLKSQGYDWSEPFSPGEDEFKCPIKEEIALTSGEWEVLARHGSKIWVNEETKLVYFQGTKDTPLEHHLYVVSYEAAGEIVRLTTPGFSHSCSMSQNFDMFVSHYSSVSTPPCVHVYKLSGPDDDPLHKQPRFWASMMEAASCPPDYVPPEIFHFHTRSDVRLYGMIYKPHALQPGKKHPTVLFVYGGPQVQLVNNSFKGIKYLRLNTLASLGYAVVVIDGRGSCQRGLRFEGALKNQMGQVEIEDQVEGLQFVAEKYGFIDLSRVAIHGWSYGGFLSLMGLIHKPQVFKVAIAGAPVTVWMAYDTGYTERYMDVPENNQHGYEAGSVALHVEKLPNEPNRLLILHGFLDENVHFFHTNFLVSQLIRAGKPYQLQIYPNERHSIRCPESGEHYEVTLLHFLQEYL
Description: as §1, §4, §5, §2, §3

Structure (SMILES) | IC50 [1] [nM] | DPP 7 IC50 [2] | IC50 [3] [nM] | DPP 9 IC50 [4] | DPP 8 IC50 [3] | IC50 [4] [nM]
N#Cc1ccccc1Cn1c(N2CCC[C@@H](N)C2)nc2c(Cl)csc2c1=O [Compound 9, (R)-2-((2-(3-aminopiperidin-1-yl)-7-chloro-4-oxothieno[3,2-d]pyrimidin-3-(4H)-yl)methyl)benzonitrile] | 36.8 | – | – | – | – | –
N#Cc1ccccc1Cn1c(N2CCC[C@@H](N)C2)nc2cc(Cl)sc2c1=O [Compound 8, (R)-2-((2-(3-aminopiperidin-1-yl)-6-chloro-4-oxothieno[3,2-d]pyrimidin-3 (4H)-yl)methyl)benzonitrile] | 45.6 | – | – | – | – | –
N#Cc1ccccc1Cn1c(N2CCC[C@@H](N)C2)nc2cc(C(=O)N3CCC[C@H]3CO)sc2c1=O [Compound 128, 2-((2-((R)-3-aminopiperidin-1-yl)-6-((S)-2-(hydroxymethyl)pyrrolidine-1-carbonyl)-4-oxothieno[3,2-d]pyrimidin-3(4H)-yl)methyl)benzonitrile] | 30.7 | N.I. | 39000 | N.I. | – | –
CS(=O)(=O)CCNC(=O)c1csc2c(=O)n(Cc3ccccc3C#N)c(N3CCC[C@@H](N)C3)nc12 [Compound 90, (R)-2-(3-aminopiperidin-1-yl)-3-(2-cyanobenzyl)-N-(2-(methylsulfonyl)-ethyl)-4-oxo-3,4-dihydrothieno[3,2-d]-pyrimidine-7-carboxamide] | 14.3 | N.I. | 102000 | N.I. | – | –
CS(=O)(=O)CCNC(=O)c1cc2nc(N3CCC[C@@H](N)C3)n(Cc3ccccc3C#N)c(=O)c2s1 [Compound 126, (R)-2-(3-aminopiperidin-1-yl)-3-(2-cyanobenzyl)-N-(2-(methylsulfonyl)-ethyl)-4-oxo-3,4-dihydrothieno[3,2-d]-pyrimidine-6-carboxamide] | 20.1 | N.I. | 55900 | N.I. | – | –
N#Cc1ccccc1Cn1c(N2CCC[C@@H](N)C2)nc2cc(C(=O)N3CCC(CO)CC3)sc2c1=O [Compound 124, (R)-2-((2-(3-aminopiperidin-1-yl)-6-(4-(hydroxymethyl)piperidine-1-carbonyl)-4-oxothieno[3,2-d]pyrimidin-3(4H)-yl)methyl)benzonitrile] | 26.9 | N.I. | 43900 | N.I. | – | –
N#Cc1ccccc1Cn1c(N2CCC[C@@H](N)C2)nc2cc(C(Br)Br)sc2c1=O [Compound 98, (R)-2-((2-(3-aminopiperidin-1-yl)-6-(dibromomethyl)-4-oxothieno[3,2-d]-pyrimidin-3(4H)-yl)methyl)benzonitrile] | 9.95 | N.I. | – | – | – | –
N#Cc1ccccc1Cn1c(N2CCC[C@@H](N)C2)nc2c(C(=O)NCCCO)csc2c1=O [Compound 93, (R)-2-(3-aminopiperidin-1-yl)-3-(2-cyanobenzyl)-N-(3-hydroxypropyl)-4-oxo-3,4-dihydrothieno[3,2-d]pyrimidine-7-carboxamide] | 14.8 | N.I. | 60700 | N.I. | – | –
CCOC(=O)CCCNC(=O)c1csc2c(=O)n(Cc3ccccc3C#N)c(N3CCC[C@@H](N)C3)nc12 [Compound 89, (R)-ethyl 4-(2-(3-aminopiperidin-1-yl)-3-(2-cyanobenzyl)-4-oxo-3,4-dihydrothieno[3,2-d]pyrimidine-7-carboxamido)butanoate] | 14.3 | N.I. | 39400 | N.I. | – | –
N#Cc1ccccc1Cn1c(N2CCC[C@@H](N)C2)nc2c(Cl)c(Cl)sc2c1=O [Compound 10, (R)-2-((2-(3-aminopiperidin-1-yl)-6,7-dichloro-4-oxothieno[3,2-d]pyrimidin-3(4H)-yl)methyl)benzonitrile] | 90 | – | – | – | – | –
N#Cc1ccccc1Cn1c(N2CCC[C@@H](N)C2)nc2c(CO[C@H]3CCOC3)csc2c1=O [Compound 87, 2-((2-((R)-3-aminopiperidin-1-yl)-4-oxo-7-((((S)-tetrahydrofuran-3-yl)oxy)methyl)thieno[3,2-d]pyrimidin-3(4H)-yl)methyl)benzonitrile] | 26.5 | N.I. | – | N.I. | N.I. | –
CCOC(=O)C1CCN(C(=O)c2cc3nc(N4CCC[C@@H](N)C4)n(Cc4ccccc4C#N)c(=O)c3s2)CC1 [Compound 129, (R)-ethyl 1-(2-(3-aminopiperidin-1-yl)-3-(2-cyanobenzyl)-4-oxo-3,4-dihydrothieno[3,2-d]pyrimidine-6-carbonyl)piperidine-4-carboxylate] | 33.9 | N.I. | 16300 | N.I. | – | –
N#Cc1ccccc1Cn1c(N2CCC[C@@H](N)C2)nc2cc(C(=O)NCCO)sc2c1=O [Compound 123, (R)-2-(3-aminopiperidin-1-yl)-3-(2-cyanobcnzyl)-N-(2-hydroxyethyl)-4-oxo-3,4-dihydrothieno[3,2-d]-pyrimidine-6-carboxamide] | 19.8 | N.I. | 223000 | N.I. | – | –

Second part, the molecule after the results:

IC50 [1] [nM] | DPP 7 IC50 [2] | IC50 [3] [nM] | DPP 9 IC50 [4] | DPP 8 IC50 [3] | IC50 [4] [nM] | Structure (SMILES)
35.5 | – | – | – | – | – | N#Cc1ccccc1Cn1c(N2CCC[C@@H](N)C2)nc2c3c(sc2c1=O)CCCC3 [Compound 27, (R)-2-((2-(3-aminopiperidin-1-yl)-4-oxo-6,7,8,9-tetrahydrobenzo[4,5]thieno-[3,2-d]pyrimidin-3(4H)-yl)methyl)-benzonitrile]
24.6 | N.I. | 52700 | N.I. | – | – | N#Cc1ccccc1Cn1c(N2CCC[C@@H](N)C2)nc2cc(C(=O)N[C@H]3CCOC3=O)sc2c1=O [Compound 127, 2-((R)-3-aminopiperidin-1-yl)-3-(2-cyanobenzyl)-4-oxo-N-((S)-2-oxotetrahydrofuran-3-yl)-3,4-dihydrothieno[3,2-d]pyrimidine-6-carboxamide]
21.7 | N.I. | 76700 | N.I. | – | – | N#Cc1ccccc1Cn1c(N2CCC[C@@H](N)C2)nc2c(C(=O)N[C@H]3CCOC3=O)csc2c1=O [Compound 92, 2-((R)-3-aminopiperidin-1-yl)-3-(2-cyanobenzyl)-4-oxo-N-((S)-2-oxotetrahydrofuran-3-yl)-3,4-dihydrothieno[3,2-d]pyrimidine-7-carboxamide]
36.4 | N.I. | 88000 | N.I. | – | – | COC(=O)[C@@H]1CCCN1C(=O)c1csc2c(=O)n(Cc3ccccc3C#N)c(N3CCC[C@@H](N)C3)nc12 [Compound 91, (S)-methyl 1-(2-((R)-3-aminopiperidin-1-yl)-3-(2-cyanobenzyl)-4-oxo-3,4-dihydrothieno[3,2-d]pyrimidine-7-carbonyl)pyrrolidine-2-carboxylate]
34.7 | – | – | – | – | – | N#Cc1ccccc1Cn1c(N2CCC[C@@H](N)C2)nc2cc(F)sc2c1=O [Compound 1, (R)-2-((2-(3-aminopiperidin-1-yl)-6-fluoro-4-oxothieno[3,2-d]pyrimidin-3(4H)-yl)methyl)benzonitrile]
14.8 | N.I. | 54900 | N.I. | – | – | CCOC(=O)CCNC(=O)c1csc2c(=O)n(Cc3ccccc3C#N)c(N3CCC[C@@H](N)C3)nc12 [Compound 88, (R)-ethyl 3-(2-(3-aminopiperidin-1-yl)-3-(2-cyanobenzyl)-4-oxo-3,4-dihydrothieno[3,2-d]pyrimidine-7-carboxamido)propanoate]
8.78 | – | – | – | – | – | N#Cc1ccccc1Cn1c(N2CCC[C@@H](N)C2)nc2c(Br)csc2c1=O [Compound 4, (R)-2-((2-(3-aminopiperidin-1-yl)-7-bromo-4-oxothieno[3,2-d]pyrimidin-3(4H)-yl)methyl)benzonitrile]
33.8 | N.I. | 15500 | – | – | 172000 | COC(=O)[C@@H]1CCCN1C(=O)c1cc2nc(N3CCC[C@@H](N)C3)n(Cc3ccccc3C#N)c(=O)c2s1 [Compound 125, (S)-methyl 1-(2-((R)-3-aminopiperidin-1-yl)-3-(2-cyanobenzyl)-4-oxo-3,4-dihydrothieno[3,2-d]pyrimidine-6-carbonyl)pyrrolidine-2-carboxylate]
